# Assay results: patent US20150191469A1, “COMPOUNDS AND METHODS FOR TREATING HIV” (priority 2012, published 2015)
# pIC50: −log10 of the molar value.
# System: HIV
# Test: MT4 assay: antiviral HIV activity (cell protection, cell titer glo readout at 96 hours)
# Format: cell-based
# Conditions: Human immunodeficiency virus 1, MT4, 96 h, MT4 cells, cell titer glo readout at 96 hours, 10 point dose response; read-out: HIV MT4 Assay IC50
# Method: Antiviral HIV activity and cytotoxicity values for compounds of the invention from Table 1 were measured in parallel in the HTLV-1 transformed cell line MT-4 based on the method previously described (Hazen et al., 2007, In vitro antiviral activity of the novel, tyrosyl-based human immunodeficiency virus (HIV) type 1 protease inhibitor brecanavir (GW640385) in combination with other antiretrovirals and against a panel of protease inhibitor-resistant HIV (Hazen et al., “In vitro antiviral activity of the novel, tyrosyl-based human immunodeficiency virus (HIV) type 1 protease inhibitor brecanavir (GW640385) in combination with other antiretrovirals and against a panel of protease inhibitor-resistant HIV”, Antimicrob. Agents Chemother. 2007, 51: 3147-3154; and Pauwels et al., “Sensitive and rapid assay on MT-4 cells for the detection of antiviral compounds against the AIDS virus”, J. of Virological Methods 1987, 16: 171-185).
# Luciferase activity was measured 96 hours later by adding a cell titer glo (Promega, Madison, Wis.). Percent inhibition of cell protection data was plotted relative to no compound control. Under the same condition, cytotoxicity of the compounds was determined using cell titer Glo™ (Promega, Madison, Wis.). IC50s were determined from a 10 point dose response curve using 3-4-fold serial dilution for each compound, which spans a concentration range >1000 fold.
# These values are plotted against the molar compound concentrations using the standard four parameter logistic equation:
# y=((Vmax*x̂n)/(K̂n+x̂n))+Y2
# Y2=minimum y n=slope factor
# Vmax=maximum y x=compound concentration [M]
row,Compound,pIC50
1,"Cc1nc2c(cc(-c3ccnc(-c4ccc5c(cnn5C)c4)c3)n2C)c(-c2cc(F)c3c(c2C)NCCO3)c1[C@H](OC(C)(C)C)C(=O)O (atropisomer, axis not shown) [Example 3, (2S)-2-(tert-butoxy)-2-[4-(8-fluoro-5-methyl-3,4-dihydro-2H-1,4-benzoxazin-6-yl)-1,6-dimethyl-2-[2-(1-methyl-1H-indazol-5-yl)pyridin-4-yl]-1H-pyrrolo[2,3-b]pyridin-5-yl]acetic acid]",8.72
2,"Cc1nc2c(cc(-c3ccnc(-c4cnc5c(cnn5C)c4)c3)n2C)c(-c2ccc3c(c2C)CCCO3)c1[C@H](OC(C)(C)C)C(=O)O (atropisomer, axis not shown) [Example 4, (2S)-2-(tert-butoxy)-2-[1,6-dimethyl-2-(2-{1-methyl-1H-pyrazolo[3,4-b]pyridin-5-yl}pyridin-4-yl)-4-(5-methyl-3,4-dihydro-2H-1-benzopyran-6-yl)-1H-pyrrolo[2,3-b]pyridin-5-yl]acetic acid]",8.80
3,"Cc1nc2c(cc(-c3ccnc(-c4cccnc4)c3)n2C)c(-c2cc(F)c3c(c2C)CCCO3)c1[C@H](OC(C)(C)C)C(=O)O (atropisomer, axis not shown) [Example 6, (2S)-2-(tert-butoxy)-2-[4-(8-fluoro-5-methyl-3,4-dihydro-2H-1-benzopyran-6-yl)-1,6-dimethyl-2-[2-(pyridin-3-yl)pyridin-4-yl]-1H-pyrrolo[2,3-b]pyridin-5-yl]acetic acid]",7.83
4,"Cc1nc2c(cc(-c3ccnc(-c4ccc5c(c4)CCN5C)c3)n2C)c(-c2cc(F)c3c(c2C)CCCO3)c1[C@H](OC(C)(C)C)C(=O)O (atropisomer, axis not shown) [Example 8, (2S)-2-(tert-butoxy)-2-[4-(8-fluoro-5-methyl-3,4-dihydro-2H-1-benzopyran-6-yl)-1,6-dimethyl-2-[2-(1-methyl-2,3-dihydro-1H-indol-5-yl)pyridin-4-yl]-1H-pyrrolo[2,3-b]pyridin-5-yl]acetic acid]",8.25
5,"Cc1nc2c(cc(-c3ccnc(-c4cnn(C5CCOCC5)c4)c3)n2C)c(-c2cc(F)c3c(c2C)CCCO3)c1[C@H](OC(C)(C)C)C(=O)O (atropisomer, axis not shown) [Example 9, (2S)-2-(tert-butoxy)-2-[4-(8-fluoro-5-methyl-3,4-dihydro-2H-1-benzopyran-6-yl)-1,6-dimethyl-2-{2-[1-(oxan-4-yl)-1H-pyrazol-4-yl]pyridin-4-yl}-1H-pyrrolo[2,3-b]pyridin-5-yl]acetic acid]",7.79
6,"Cc1nc2c(cc(-c3ccnc(N4CCN(C)CC4)c3)n2C)c(-c2cc(F)c3c(c2C)CCCO3)c1[C@H](OC(C)(C)C)C(=O)O (atropisomer, axis not shown) [Example 10, (2S)-2-(tert-butoxy)-2-[4-(8-fluoro-5-methyl-3,4-dihydro-2H-1-benzopyran-6-yl)-1,6-dimethyl-2-[2-(4-methylpiperazin-1-yl)pyridin-4-yl]-1H-pyrrolo[2,3-b]pyridin-5-yl]acetic acid]",7.52
7,"Cc1nc2c(cc(C(=O)N3CCN(c4ccc5c(cnn5C)c4)CC3)n2C)c(-c2cc(F)c3c(c2C)CCCO3)c1[C@H](OC(C)(C)C)C(=O)O (atropisomer, axis not shown) [Example 11, (2S)-2-(tert-butoxy)-2-[4-(8-fluoro-5-methyl-3,4-dihydro-2H-1-benzopyran-6-yl)-1,6-dimethyl-2-{[4-(1-methyl-1H-indazol-5-yl)piperazin-1-yl]carbonyl}-1H-pyrrolo[2,3-b]pyridin-5-yl]acetic acid]",7.83
8,"Cc1nc2c(cc(-c3ccc(-c4ccc5c(cnn5C)c4)nc3)n2C)c(-c2cc(F)c3c(c2C)CCCO3)c1[C@H](OC(C)(C)C)C(=O)O (atropisomer, axis not shown) [Example 18, (2S)-2-(tert-butoxy)-2-[4-(8-fluoro-5-methyl-3,4-dihydro-2H-1-benzopyran-6-yl)-1,6-dimethyl-2-[6-(1-methyl-1H-indazol-5-yl)pyridin-3-yl]-1H-pyrrolo[2,3-b]pyridin-5-yl]acetic acid]",7.58
9,"Cc1nc2c(cc(-c3ccnc(N4CCN(C5COC5)CC4)c3)n2C)c(-c2cc(F)c3c(c2C)CCCO3)c1[C@H](OC(C)(C)C)C(=O)O (atropisomer, axis not shown) [Example 25, (2S)-2-(tert-butoxy)-2-[4-(8-fluoro-5-methyl-3,4-dihydro-2H-1-benzopyran-6-yl)-1,6-dimethyl-2-{2-[4-(oxetan-3-yl)piperazin-1-yl]pyridin-4-yl}-1H-pyrrolo[2,3-b]pyridin-5-yl]acetic acid]",7.97
10,"Cc1nc2c(cc(-c3ccnc(-c4ccnc(N5CCN(C)CC5)c4)c3)n2C)c(-c2cc(F)c3c(c2C)CCCO3)c1[C@H](OC(C)(C)C)C(=O)O (atropisomer, axis not shown) [Example 30]",8.39
11,"Cc1ccc(-c2cc(-c3cc4c(-c5cc(F)c6c(c5C)CCCO6)c([C@H](OC(C)(C)C)C(=O)O)c(C)nc4n3C)ccn2)cc1 (atropisomer, axis not shown) [Example 31]",7.96
12,"Cc1nc2c(cc(-c3ccnc(C4=CCCCC4)c3)n2C)c(-c2cc(F)c3c(c2C)CCCO3)c1[C@H](OC(C)(C)C)C(=O)O (atropisomer, axis not shown) [Example 32]",7.46
13,"Cc1nc2c(cc(-c3ccnc(-c4cnc(N(C)C)nc4)c3)n2C)c(-c2cc(F)c3c(c2C)CCCO3)c1[C@H](OC(C)(C)C)C(=O)O (atropisomer, axis not shown) [Example 33]",8.14
14,"Cc1nc2c(cc(-c3ccnc(-c4ccc5nccn5c4)c3)n2C)c(-c2cc(F)c3c(c2C)CCCO3)c1[C@H](OC(C)(C)C)C(=O)O (atropisomer, axis not shown) [Example 34]",8.38
15,"Cc1nc2c(cc(-c3ccnc(-c4ccc5nnn(C)c5c4)c3)n2C)c(-c2cc(F)c3c(c2C)CCCO3)c1[C@H](OC(C)(C)C)C(=O)O (atropisomer, axis not shown) [Example 35]",7.96
16,"Cc1nc2c(cc(-c3ccnc(-c4cnc(O)nc4)c3)n2C)c(-c2cc(F)c3c(c2C)CCCO3)c1[C@H](OC(C)(C)C)C(=O)O (atropisomer, axis not shown) [Example 36]",5.07
17,"Cc1nc2c(cc(-c3ccnc(-c4ccc5c(c4)C(C)(C)CO5)c3)n2C)c(-c2cc(F)c3c(c2C)CCCO3)c1[C@H](OC(C)(C)C)C(=O)O (atropisomer, axis not shown) [Example 37]",7.32
18,"Cc1nc2c(cc(-c3ccnc(C4=CCN(C)CC4)c3)n2C)c(-c2cc(F)c3c(c2C)CCCO3)c1[C@H](OC(C)(C)C)C(=O)O (atropisomer, axis not shown) [Example 38]",7.75
19,"Cc1nc2c(cc(-c3ccnc(-c4ccc5ccccc5c4)c3)n2C)c(-c2cc(F)c3c(c2C)CCCO3)c1[C@H](OC(C)(C)C)C(=O)O (atropisomer, axis not shown) [Example 39]",7.76
20,"Cc1nc2c(cc(-c3ccnc(-c4ccc5ncccc5c4)c3)n2C)c(-c2cc(F)c3c(c2C)CCCO3)c1[C@H](OC(C)(C)C)C(=O)O (atropisomer, axis not shown) [Example 40]",8.66
21,"Cc1nc2c(cc(-c3ccnc(-c4ccc5cnn(C)c5c4)c3)n2C)c(-c2cc(F)c3c(c2C)CCCO3)c1[C@H](OC(C)(C)C)C(=O)O (atropisomer, axis not shown) [Example 41]",8.34
22,"Cc1nc2c(cc(-c3ccnc(-c4ccc5c(c4C)NCCO5)c3)n2C)c(-c2cc(F)c3c(c2C)CCCO3)c1[C@H](OC(C)(C)C)C(=O)O (atropisomer, axis not shown) [Example 42]",8.49
23,"Cc1noc(C)c1-c1cc(-c2cc3c(-c4cc(F)c5c(c4C)CCCO5)c([C@H](OC(C)(C)C)C(=O)O)c(C)nc3n2C)ccn1 (atropisomer, axis not shown) [Example 43]",7.14
24,"Cc1nc2c(cc(-c3ccnc(-c4ccc(N5CCCC5)nc4)c3)n2C)c(-c2cc(F)c3c(c2C)CCCO3)c1[C@H](OC(C)(C)C)C(=O)O (atropisomer, axis not shown) [Example 45]",8.32
25,"Cc1nc2c(cc(-c3ccnc(-c4ccncc4)c3)n2C)c(-c2cc(F)c3c(c2C)CCCO3)c1[C@H](OC(C)(C)C)C(=O)O (atropisomer, axis not shown) [Example 46]",8.11
26,"Cc1nc2c(cc(-c3ccnc(-c4ccc5c(c4)CCN(C4COC4)C5)c3)n2C)c(-c2cc(F)c3c(c2C)CCCO3)c1[C@H](OC(C)(C)C)C(=O)O (atropisomer, axis not shown) [Example 47]",8.25
27,"Cc1nc2c(cc(-c3ccnc(-c4ccc5c(c4)CN(C4COC4)CC5)c3)n2C)c(-c2cc(F)c3c(c2C)CCCO3)c1[C@H](OC(C)(C)C)C(=O)O (atropisomer, axis not shown) [Example 48]",8.36
28,"Cc1nc2c(cc(-c3ccnc(-c4ccc(O)c(N)c4)c3)n2C)c(-c2cc(F)c3c(c2C)CCCO3)c1[C@H](OC(C)(C)C)C(=O)O (atropisomer, axis not shown) [Example 49]",6.94
29,"Cc1nc2c(cc(-c3ccnc(-c4ccc5c(c4)NCCO5)c3)n2C)c(-c2cc(F)c3c(c2C)CCCO3)c1[C@H](OC(C)(C)C)C(=O)O (atropisomer, axis not shown) [Example 50]",8.06
30,"COc1ncc(-c2cc(-c3cc4c(-c5cc(F)c6c(c5C)CCCO6)c([C@H](OC(C)(C)C)C(=O)O)c(C)nc4n3C)ccn2)cn1 (atropisomer, axis not shown) [Example 52]",7.86
